From US20030105119A1, “Barbiturates as integrin antagonists and their use for treating inflammatory diseases” (priority 2001, published 2003)

Target: T1, α4β7 integrin binding to human MAdCAM-1-Ig (Homo sapiens, UniProt P13612+P26010)
T1 construct: endogenous in cells; host or cells: RPMI 8866 cells
T1 sequence (P13612 34-1032): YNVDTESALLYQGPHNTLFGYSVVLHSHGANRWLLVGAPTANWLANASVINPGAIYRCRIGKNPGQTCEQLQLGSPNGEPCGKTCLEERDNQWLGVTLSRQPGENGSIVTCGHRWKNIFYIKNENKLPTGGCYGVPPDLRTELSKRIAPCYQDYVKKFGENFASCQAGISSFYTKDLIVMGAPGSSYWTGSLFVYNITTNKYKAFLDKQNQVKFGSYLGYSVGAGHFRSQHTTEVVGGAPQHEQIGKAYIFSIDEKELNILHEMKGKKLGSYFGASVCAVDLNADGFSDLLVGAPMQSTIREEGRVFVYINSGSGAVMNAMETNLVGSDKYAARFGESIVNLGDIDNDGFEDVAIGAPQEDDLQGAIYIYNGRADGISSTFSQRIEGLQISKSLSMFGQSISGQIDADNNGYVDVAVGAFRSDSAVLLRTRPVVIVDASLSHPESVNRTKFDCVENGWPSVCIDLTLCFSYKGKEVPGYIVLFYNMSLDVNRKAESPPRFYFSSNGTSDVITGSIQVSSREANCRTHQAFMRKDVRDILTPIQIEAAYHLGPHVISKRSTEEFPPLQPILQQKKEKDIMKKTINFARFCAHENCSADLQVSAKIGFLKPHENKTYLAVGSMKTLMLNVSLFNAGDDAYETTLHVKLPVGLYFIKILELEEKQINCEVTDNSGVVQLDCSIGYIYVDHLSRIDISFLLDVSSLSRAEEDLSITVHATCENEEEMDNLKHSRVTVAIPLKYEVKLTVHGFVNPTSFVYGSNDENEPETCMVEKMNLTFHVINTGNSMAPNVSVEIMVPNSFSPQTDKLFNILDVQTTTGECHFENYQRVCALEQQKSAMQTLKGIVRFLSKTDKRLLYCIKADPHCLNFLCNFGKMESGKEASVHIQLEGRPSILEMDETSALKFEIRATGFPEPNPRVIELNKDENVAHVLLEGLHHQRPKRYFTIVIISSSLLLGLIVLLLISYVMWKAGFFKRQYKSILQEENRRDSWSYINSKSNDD
T1 sequence (P26010 20-798): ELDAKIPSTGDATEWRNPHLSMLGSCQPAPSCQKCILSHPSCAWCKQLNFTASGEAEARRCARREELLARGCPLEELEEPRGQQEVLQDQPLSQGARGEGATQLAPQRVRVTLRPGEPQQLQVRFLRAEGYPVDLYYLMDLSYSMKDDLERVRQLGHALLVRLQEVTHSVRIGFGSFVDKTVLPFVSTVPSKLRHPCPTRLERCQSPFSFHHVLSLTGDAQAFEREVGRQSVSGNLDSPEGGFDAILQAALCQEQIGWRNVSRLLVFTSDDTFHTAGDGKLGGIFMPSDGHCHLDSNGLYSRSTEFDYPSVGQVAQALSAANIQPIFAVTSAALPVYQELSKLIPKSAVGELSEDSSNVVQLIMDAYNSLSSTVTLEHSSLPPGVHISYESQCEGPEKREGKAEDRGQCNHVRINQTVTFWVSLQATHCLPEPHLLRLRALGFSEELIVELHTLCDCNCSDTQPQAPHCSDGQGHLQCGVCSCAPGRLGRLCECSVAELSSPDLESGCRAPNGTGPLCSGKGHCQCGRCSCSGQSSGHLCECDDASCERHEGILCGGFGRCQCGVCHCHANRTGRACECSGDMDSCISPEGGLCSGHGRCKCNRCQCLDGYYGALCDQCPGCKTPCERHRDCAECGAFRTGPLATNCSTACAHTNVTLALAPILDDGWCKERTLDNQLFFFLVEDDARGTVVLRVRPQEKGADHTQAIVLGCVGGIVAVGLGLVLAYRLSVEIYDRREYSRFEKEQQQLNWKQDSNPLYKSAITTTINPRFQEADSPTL
Experiment: Adhesion inhibition assay (BCEF-labeled RPMI 8866 cells on huMAdCAM-1-Ig coated plates)
Format: cell-based
Experimental: Biological Results. Adhesion Inhibition Assay Method
RPMI 8866 cells are used in this assay. They are available in a medium with 10% FBS, 200 mM L-Glutamine, and penicillin/streptomycin 10x.
1. Coat plates (costar 3590) with a human MAdCAM-1-Ig dilution prepared in carbonate buffer (25 ng of huMAdCAM/well in 50 μl carbonate buffer) overnight at 4° C. Carbonate buffer is NaHCO3 3.44 g, Na2CO3 1.72 g, water qs 200 ml; adjust pH to 9.5, filter thru 0.2 μm and store at 4° C.
2. Wash plates with the plate washer (BioTeck Instruments EL404) once, using settings for washing cell rinse, with the following parameters:
3. Block wells with blocking buffer (10% calf serum, PBS), 100 μl/well, 37° C., 3 h.
4. Wash plates with the plate washer once, using settings for washing cell rinse. Use plates within 10 min after washing.
5. Label the RPMI 8866 cells with 2′,7′-bis-(2-carboxyethyl)-5-6-carboxy-fluorescein acetoxymethyl ester (BCEF-AM) as follows:
spin down the cells at 1500 rpm, 10 min. Decant supernatant. Resuspend cells at 4×10^6 cells/ml sterile PBS in 50 ml polypropylene tube. Add 2 μl BCEF-AM per ml of resuspended cells. Mix well and wrap tube in aluminum foil (to exclude light). Place cells at 37° C. for 30 min to label. Spin labeled cells down (while covered in aluminum foil) at 1500 rpm, 10 min. Decant supernatant. Resuspend labeled cells in 25 ml assay buffer and centrifuge at 1500 rpm, 10 min. Resuspend labeled cells in assay buffer at 2.5×10^6 cells/ml.
(assay buffer: HBSS, penicillin/streptomycin 10×, MnCl2 0.5 mM, Hepes 25 mM, pH=7.2)
6. Prepare dilutions of positive control: LDP-02 (α4β7 integrin blocking antibody) in assay buffer at 250 μg/ml and compounds of the invention in DMSO for addition to assay plates.
7. To polypropylene plate, add, with Multimek:
2.2 μl/well of 100% DMSO or compound dilutions;
147.8 μl/well of assay buffer to all wells;
50 μl/well of BCEF-labeled RPMI 8866 cells (at 2.5×10^6 cells/ml assay buffer);
Mix well and add 180 μl of the mix to huMAdCAM-1-Ig coated plate.
8. Read plate in fluorescent plate reader (excite at 485 nm, read at 535 nm) and adjust the gain (total signal).
9. Wrap plates in aluminum foils and incubate at 25° C. for 30 min.
10. Wash plates with the plate washer using settings for washing cell rinse.
11. Read plate in fluorescent plate reader (excite at 485 nm, read at 535 nm).
The following Table 2 summarizes the results for some of the compounds and indicates the IC50 in μM.

O=C1NC(=O)N(c2cccc3ccccc23)C(=O)/C1=C\c1c[nH]c2ccccc12 [Example 1, 5-(1H-Indol-3-ylmethylene)-naphthalen-1-yl-pyrimidine-2,4,6-trione]
IC50: 0.41 µM

Cc1cccc(N2C(=O)NC(=O)/C(=C\C=C\c3ccccc3)C2=O)c1 [Example 16, 5-(3-Phenyl-allylidene)-1-m-tolyl-pyrimidine-2,4,6-trione]
IC50: 0.9 µM

Cc1ccccc1N1C(=O)NC(=O)/C(=C/C=C/c2ccccc2)C1=O [Example 35, 5-(3-Phenyl-allylidene)-1-o-tolyl-pyrimidine-2,4,6-trione]
IC50: 2.65 µM

O=C1NC(=O)N(c2ccccc2Cl)C(=O)/C1=C\C=C\c1ccccc1 [Example 43, 1-(2-Chloro-phenyl)-5-(3-phenyl-allylidene)-pyrimidine-2,4,6-trione]
IC50: 1.9 µM

O=C1NC(=O)N(c2ccccc2Cl)C(=O)/C1=C\c1c[nH]c2ccccc12 [Example 18, 1-(2-Chloro-phenyl)-5-(1H-indol-3-ylmethylene)-pyrimidine-2,4,6-trione]
IC50: 2.5 µM

Cn1cc(/C=C2/C(=O)NC(=O)N(c3cccc4ccccc34)C2=O)c2ccccc21 [Example 2, 5-(1-Methyl-1H-indol-3-ylmethylene)-1-naphthalen-1-yl-pyrimidine-2,4,6-trione]
IC50: 0.94 µM

O=C1NC(=O)N(c2cccc(Cl)c2)C(=O)/C1=C/c1c[nH]c2ccccc12 [Example 37, 1-(3-Chloro-phenyl)-5-(1H-indol-3-ylmethylene)-pyrimidine-2,4,6-trione]
IC50: 2.75 µM

Cc1cccc(N2C(=O)NC(=O)/C(=C\c3ccc[nH]3)C2=O)c1 [Example 24, 5-(Pyrrol-2-ylmethylene)-1-m-tolyl-pyrimidine-2,4,6-trione]
IC50: 2.95 µM

Cc1ccc(N2C(=O)NC(=O)/C(=C\C=C\c3ccccc3)C2=O)cc1 [Example 42, 5-(3-Phenyl-allylidene)-1-p-tolyl-pyrimidine-2,4,6-trione]
IC50: 2.6 µM

O=C1NC(=O)N(Cc2cccnc2)C(=O)/C1=C/c1c[nH]c2ccccc12 [Example 49, 5-(1H-indol-3-ylmethylene)-1-pyridin-3-ylmethyl-pyrimidine-2,4,6-trione]
IC50: 1.3 µM

O=C1NC(=O)N(c2cccc3cccnc23)C(=O)/C1=C/C=C/c1ccccc1 [Example 51, 5-(3-Phenyl-allylidene)-1-quinolin-8-yl-pyrimidine-2,4,6-trione]
IC50: 2.7 µM

Cc1cccc(N2C(=O)NC(=O)/C(=C/c3c[nH]c4ccccc34)C2=O)c1 [Example 17, 5-(1H-Indol-3-ylmethylene)-1-m-tolyl-pyrimidine-2,4,6-trione]
IC50: 2.93 µM

Cc1ccccc1N1C(=O)NC(=O)/C(=C/c2cn(C)c3ccccc23)C1=O [Example 15, 5-(1-Methyl-1H-indol-3-ylmethylene)-1-o-tolyl-pyrimidine-2,4,6-trione]
IC50: 2.3 µM
